In patent publication US6046231A, “Use of 4'-bromoflavone in a cancer chemopreventative composition and method” (The Board of Trustees of the University of Illinois, priority 1999, dated 2000):
Like-named read-outs stand apart in the source and are kept apart here.

Legend:
Hepa 1c1c7 cells = test: Hepa 1c1c7 cell viability (cytotoxicity); format: cell-based, murine; conditions: for IC50: read-out: IC50, concentration for 50% inhibition of cell viability
[1] = tested on: MCF-7 cells (B[α]P-DNA adducts); test: Binding of metabolically activated [3H]B[α]P to DNA of cultured MCF-7 cells; format: cell-based; conditions: Homo sapiens, MCF7, read-out: IC50, formation of B[α]P-DNA adducts, MCF-7
Procedure: Effect of 4'-BF on the Binding of Metabolically Activated [^3 H]B[α]P to DNA of Cultured Cells. HepG2 cells or MCF-7 cells were plated at a density of 1×10^6 cells/dish in 6 cm Petri dishes and allowed to incubate for 18 hours. Fresh media containing test samples were added to the cells 2 hours prior to the addition of 1 μM [^3 H]B[α]P (10 Ci/mmol) The test compound and tritiated carcinogen then were incubated for 6 hours. Following incubation, genomic DNA was extracted by the method described by Sharma et al., with minor modifications. Briefly, the cells were washed three times with PBS and harvested by incubation with 0.5 ml of proteinase K (100 μg/ml) in 0.2 M Tris-0.1 M EDTA (pH 8.5) for 10 min at 37° C. The cells were gently scraped from the dishes, transferred to 50 μl of 10% SDS solution, and incubated for 3 hours at 55° C. […] An aliquot of harvested DNA was used for measuring the relative absorbencies at 260 and 280 nm (A2360 nm/A2380 nm=1.7-1.9), and the DNA content was determined by absorbance at 260 nm (1 A2360 nm unit=50 μg). The remaining sample was used for the determination of radioactivity. All experiments were performed in triplicate; percentage inhibition of carcinogen-DNA binding mediated by test samples was calculated as follows: % inhibition=[1-(dpm per μg DNA test cells/dpm per μg DNA control cells)]×100.

[2] = tested on: QR ARE-CAT construct, HepG2 cells; test: CAT expression in HepG2 cells transfected with QR ARE-CAT; format: cell-based, human cells; rat QR gene; conditions: 10 μM, 48 h; p<0.0001; listed as 4'-BF
Procedure: Transcient Transfection Gene Expression Assay. Cultured HepG2 human hepatoma cells were transfected with three plasmid constructs (PDTD-1697CAT, XRE-CAT, ARE-CAT) containing various portions of the 5'-region of the QR gene fused to the CAT gene using the calcium phosphate precipitation method (J. Sambrook et al., Molecular cloning: A Laboratory Handbook, Ed. Chris Nolan, CHS Laboratory Press, 1989). After 4 hours of transfection, the cells were treated with 10% glycerol for 3 minutes and rinsed with PBS and switched to MEM, containing 100 units/ml penicillin G sodium, 100 units/ml streptomycin sulfate, nonessential amino acids, and 1 mM sodium pyruvate (Life Technologies Inc.) supplemented with 10% fetal bovine serum for 12-16 hours recovery. Then, test agents were added to the cells. After 48 hours of treatment with the test agents, cells were harvested with lysis buffer (Boehringer Mannheim Biochemical) and CAT protein expressions were assessed using a CAT ELISA kit (Boehringer Mannheim Biochemical). CAT enzyme expression was normalized for the protein content of each sample. All data were expressed as mean +/- SD. Means were compared using Student's t test with n=4.
This was further investigated in transient transfection experiments wherein human hepatoma cells were transfected with DNA constructs containing various portions of the 5' upstream promoter region of the QR gene linked to the CAT reporter gene by using the calcium phosphate precipitation method. Construct pDTD-1097CAT contains elements of the rat QR gene connected to the CAT construct gene. […]
In particular, FIG. 1 illustrates quantitation of CAT expression in HepG2 cells transfected with QR-CAT constructs. […] CAT expression (ng CAT/mg protein) was determined using a CAT ELISA, and the ratio of CAT expression between treated and control cells was calculated (ratio=treated/control).

quinone reductase (QR) = test: QR activity in rat tissues after dietary administration; format: in vivo, Sprague Dawley rat
Procedure: Analysis of Quinone Reductase Activity and Glutathione Level in Rat Tissues. Spraque Dawley rats (n=10) at 43 days of age were placed on an appropriate experimental diet (5000, 2500, 1250, 625, and 312.5 mg/kg diet of 4'-BF) for three weeks. After three weeks, animals were sacrificed by carbon dioxide (CO2) asphyxiation. The livers, mammary glands, colons, stomachs, and lungs were collected, rinsed with saline, and frozen in liquid nitrogen and stored at -80° C. until enzyme activities were determined. Individual tissues (except mammary glands) were homogenized in 0.25 M sucrose and centrifuged at 15,000×g for 30 min at 4° C. The supernatant fluids were collected, 20% volume of 0.1 M CaCl2 in 0.25 M sucrose were added. After incubation at 0° C. for 30 min and further centrifuging at 15,000×g for 30 min at 4° C., a clear cytosolic fraction was used for enzyme assay. Mammary glands of each animal were pooled, homogenized in 1 ml ice-cold 0.1 M phosphate buffer pH 6.5 and centrifuged (15,000×g, 30 min at 4° C.), a clear supernatant suitable for enzyme assay resulted. Dicumarol-sensitive QR activity was measured in duplicate in 50 μl of suitable dilution of the tissue supernatant as described for the cellular system. GSH levels were assayed in duplicate using 96-well plates. […] The plates were shaken for 5-10 min and the extent of 2-nitro-5-thiobenzoic acid formation was monitored at 405 nm. A GSH standard curve was used to calculate the GSH content. GSH levels were expressed as nmol/mg protein.
Induction of Quinone Reductase Activity and Glutathione Level in Rat Tissues. Based on the results in cell cultures, 4'-BF was further evaluated for its inducing potency in rat liver, mammary gland, colon, stomach, and lung. […] The concentration of 4'-BF for maximum induction of GSH was about 1250 to about 2500 mg/kg diet, but varied for different organ sites.

O=c1cc(-c2ccc(Br)cc2)oc2ccccc12 [4'-Bromoflavone]
IC50 (Hepa 1c1c7 cells; Hepa 1c1c7 cells): ≥ 166 µM | IC50 (Hepa 1c1c7 cells; Mus musculus, Hepa-1c1c7, Hepa 1c1c7 cells): > 166 µM | times less toxic than sulforaphane (Hepa 1c1c7 cells; compared to sulforaphane): about 15 times | IC50 [1]: ~1700 nM | CAT expression, QR ARE-CAT [2]: significantly (P<0.0001, students t test with n=4) induced | QR activity induction, colon (quinone reductase (QR); colon, 312.5-5000 mg/kg diet, 3 weeks): 2.09-4.81 fold | QR activity in rat tissues (quinone reductase (QR); liver, mammary gland, colon, stomach, lung, short-term dietary, P<0.0001): significantly increased | QR activity induction, liver (quinone reductase (QR); liver, 312.5-5000 mg/kg diet, 3 weeks): 2.22-7.60 fold | QR activity induction, lung (quinone reductase (QR); lung, 312.5-5000 mg/kg diet, 3 weeks): 2.18-5.25 fold | QR activity induction, mammary gland (quinone reductase (QR); mammary gland, 312.5-5000 mg/kg diet, 3 weeks): 1.59-5.52 fold | QR activity induction, stomach (quinone reductase (QR); stomach, 312.5-5000 mg/kg diet, 3 weeks): 1.97-3.42 fold
